From patent US20100028298A1 (priority 2006, published 2010)
Numbered stars: 1 amine (or outer) side, 2 acyl side, 3 side chain; on linkers, the order of the positions; unused ones are H or OH. Bridge positions count the residues as written; N and C are the ends. Square brackets hold non-standard residues; d marks the D form. Peptide text beside a SMILES is read from it. X1 = CC1CC(C2=NC(C(=O)[*:2])CS2)N1[*:1]; NMeV = CN[CH](C(=O)O)C(C)C; X2 = O=C(C(O)CO[*:2])[*:1]; Pip = O=C(O)[CH]1CCCCN1; Dhb = C/C=C(\N)C(=O)O

What was measured:
[1] = tested on: Herpes simplex virus strain 1 (HSV-1, dsDNA); experiment: Antiviral effect on HSV-1, cytopathic effect on Vero cells; format: cell-based; details: Vero cells infected with 10^4 PFU/ml HSV-1, different concentrations of vioprolide A alone, FIG. 6
[2] = tested on: interferon beta activity in MXRage cells; experiment: Cell-based virus-free type I interferon activity test, Mx-RAGE fibroblasts with eGFP reporter, flow cytometry, with interferon beta; design: species or system murine; details: interferon beta standard curve, vioprolide A 50 ng/ml, FIG. 4 right panel
[3] = tested on: interferon alpha activity in MXRage cells; experiment: Cell-based virus-free type I interferon activity test, Mx-RAGE fibroblasts with eGFP reporter, flow cytometry, with interferon alpha; design: species or system murine
[4] = tested on: human cervical carcinoma derived cell line WISH; experiment: Antiproliferative activity on WISH cells; format: cell-based; details: in the presence of rhIFN-α2b, FIG. 7
Protocol: FIG. 7: The antiproliferative effect of vioprolide A. The proliferation of WISH cells was tested at different concentrations of vioprolide A alone (grey) and in the present of IFN-α2b (black).
Further, the antiproliferative effect of vioprolide A has been determined. Using standard assays, the antiproliferative activity was evaluated with human cervical carcinoma derived cell line WISH.

[5] = tested on: Vesicular stomalitis virus (VSV, ssRNA negative); format: cell-based; details: MDBK cells, rhIFN-α2b alone and with 31 and 167 ng/ml vioprolide A, FIG. 5

In the case of `C/C=C1\NC(=O)C2CSC(=N2)C2CC(C)N2C(=O)C(CC(C)C)NC(=O)C(C)NC(=O)C(O)COC(=O)C(C(C)C)N(C)C(=O)C(C(C)O)NC(=O)C2CCCCN2C1=O` (stereo not shown) [vioprolide A] (AL[X1][Dhb][Pip]T[NMeV]; linker N-C via X2; configuration not given here), the “anti-viral activity on HSV-1 (cytopathic effect)” value [1] is reported as “anti-viral activity”, the “increase of GFP positive cells” value [2] is reported as “remarkable increase” and the “increase of GFP positive cells” value ([3]; interferon alpha standard curve, vioprolide A 50 ng/ml, FIG. 4 left panel) is reported as “remarkable increase”. For the same compound, the “reduction of the amount of interferon alpha to obtain the same percent of GFP positive cells” value ([3]; vioprolide A 50 ng/ml, FIG. 4 left panel) was “about 10 fold”, the “increase of GFP positive cells with vioprolide plus interferon type I compared to interferon type I alone” value ([3]; vioprolide A 0.2 to 400 ng/ml, serial two-fold dilutions, FIG. 3) was ≤ 4 fold and the “effect on cell growth inhibition” value [4] was “additive effect”. For the same compound, the “anti-viral activity of IFN on VSV (cytopathic effect)” value [5] was “able to enhance the anti-viral activity of IFN on VSV”.
